Results published in US20130261077A1 (priority 2012, published 2013).

The compounds below were run against T1, FimH-CRD (Escherichia coli, UniProt P08191) (assay: Competitive binding assay by fluorescence polarization, assay 2 (compounds prepared by robotics, plates frozen and thawed)).
T1 construct: The first 177 amino acids of the FimH protein; thrombin tag (printed as 'fusion protein with thrombin') (cleaved yes); made in house; host or cells: bacteria (pET21b plasmid)
T1 sequence (P08191 22-177): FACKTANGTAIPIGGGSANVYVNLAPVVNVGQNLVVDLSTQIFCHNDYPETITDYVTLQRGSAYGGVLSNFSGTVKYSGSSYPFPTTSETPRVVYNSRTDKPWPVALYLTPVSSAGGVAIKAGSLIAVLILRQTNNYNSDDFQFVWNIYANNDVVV
How it was run: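 Fluorescence-polarization competition of 5 nM Alexa 647 mannoside probe with 60 nM FimH-CRD (first 177 residues, tag removed) in Tris-Cl pH 7.0, NaCl, EDTA, β-ME, BSA, 2.5% DMSO, 5 h at RT in the dark. Twelve-point 3-fold titrations (0.4 nM–75 μM) in duplicate; Kd interpolated from displacement curves.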
For `OC[C@H]1O[C@H](c2cccc(CCc3ccccc3)c2)[C@@H](O)[C@@H](O)[C@@H]1O` [Compound 102, (2R,3S,4R,5S,6R)-2-(Hydroxymethyl)-6-[3-(2-phenylethyl)phenyl]tetrahydropyran-3,4,5-triol], the Kd was 22 ± 3.4 nM. In the case of `CNC(=O)c1cc(/C=C/c2cccc([C@H]3O[C@H](CO)[C@@H](O)[C@H](O)[C@@H]3O)c2)cc(C(=O)NC)c1` [Compound 136], the Kd is reported as 19.2 ± 3.6 nM. `Cc1nnc(-c2ccc(-c3cccc([C@H]4O[C@H](CO)[C@@H](O)[C@H](O)[C@@H]4O)c3)cc2O)o1` [Compound 143, (2R,3S,4R,5S,6R)-2-(hydroxymethyl)-6-[3-[3-hydroxy-4-(5-methyl-1,3,4-oxadiazol-2-yl)phenyl]phenyl]tetrahydropyran-3,4,5-triol] gave a Kd of 11.2 ± 1 nM. Compound `OC[C@H]1O[C@H](c2cc(O)ccc2F)[C@@H](O)[C@@H](O)[C@@H]1O` [Compound 192, (2R,3S,4R,5S,6R)-2-(2-fluoro-5-hydroxy-phenyl)-6-(hydroxymethyl)tetrahydropyran-3,4,5-triol] has a Kd of 56.5 ± 9.1 nM. `CC(C)c1nnc(-c2ccc(-c3cccc([C@H]4O[C@H](CO)[C@@H](O)[C@H](O)[C@@H]4O)c3)cc2)o1` [Compound 118, (2R,3S,4R,5S,6R)-2-(hydroxymethyl)-6-[3-[4-(5-isopropyl-1,3,4-oxadiazol-2-yl)phenyl]phenyl]tetrahydropyran-3,4,5-triol] gave a Kd of 13.1 ± 0.2 nM. `OC[C@H]1O[C@H](c2cccc(Oc3ncccn3)c2)[C@@H](O)[C@@H](O)[C@@H]1O` [Compound 256, (2R,3S,4R,5S,6R)-2-(hydroxymethyl)-6-(3-pyrimidin-2-yloxyphenyl)tetrahydropyran-3,4,5-triol] showed a Kd of 67.6 ± 21.8 nM. Compound `COC(=O)c1ccc(CCc2ccc([C@H]3O[C@H](CO)[C@@H](O)[C@H](O)[C@@H]3O)cc2)cc1` [Compound 100, Methyl 4-[2-[4-[(2R,3S,4R,5S,6R)-3,4,5-trihydroxy-6-(hydroxymethyl)tetrahydropyran-2-yl]phenyl]ethyl]benzoate] has a Kd of 12 ± 3.1 nM. `CN(C)Cc1nnc(-c2ccc(-c3cccc([C@H]4O[C@H](CO)[C@@H](O)[C@H](O)[C@@H]4O)c3)cc2)o1` [Compound 113, (2R,3S,4R,5S,6R)-2-[3-[4-[5-[(Dimethylamino)methyl]-1,3,4-oxadiazol-2-yl]phenyl]phenyl]-6-(hydroxymethyl)tetrahydropyran-3,4,5-triol] was tested, and the Kd was 20.7 ± 4.7 nM. `COc1ccc(CCOc2ccc(C3O[C@H](CO)[C@@H](O)[C@H](O)[C@@H]3O)cc2)cc1` (stereo partly drawn) [Compound 239] gave a Kd of 7.7 ± 0.05 nM. `Cc1ccc(-c2nnc(-c3ccc(-c4cccc([C@H]5O[C@H](CO)[C@@H](O)[C@H](O)[C@@H]5O)c4)cc3)o2)o1` [Compound 121, (2R,3S,4R,5S,6R)-2-(hydroxymethyl)-6-[3-[4-[5-(5-methyl-2-furyl)-1,3,4-oxadiazol-2-yl]phenyl]phenyl]tetrahydropyran-3,4,5-triol] gave a Kd of 13.1 ± 0.9 nM. `COC(=O)c1ccc(C#Cc2ccc([C@H]3O[C@H](CO)[C@@H](O)[C@H](O)[C@@H]3O)cc2)cc1` [Compound 89, Methyl 4-[2-[4-[(2R,3S,4R,5S,6R)-3,4,5-trihydroxy-6-(hydroxymethyl)tetrahydropyran-2-yl]phenyl]ethynyl]benzoate] was tested, and the Kd was 14.5 ± 2.2 nM. `OC[C@H]1O[C@H](c2cccc(-c3nc4cc(F)ccc4[nH]3)c2)[C@@H](O)[C@@H](O)[C@@H]1O` [Compound 166] showed a Kd of 44.1 ± 19.9 nM. Work on `OC[C@H]1O[C@H](c2cccc(Oc3nc4ccccc4s3)c2)[C@@H](O)[C@@H](O)[C@@H]1O` [Compound 253, (2R,3S,4R,5S,6R)-2-[3-(1,3-benzothiazol-2-yloxy)phenyl]-6-(hydroxymethyl)tetrahydropyran-3,4,5-triol] yielded a Kd of under 5 nM. In the case of `CNC(=O)c1ccc(COc2cccc(C3O[C@H](CO)[C@@H](O)[C@H](O)[C@@H]3O)c2)cc1` (stereo partly drawn) [Compound 225], the Kd is reported as 34.5 ± 12.3 nM. For `OC[C@H]1O[C@H](c2cccc(-c3nc4cc(Cl)ccc4[nH]3)c2)[C@@H](O)[C@@H](O)[C@@H]1O` [Compound 170], the Kd was 32.4 ± 14.4 nM. Compound `CNC(=O)c1ccc2nc(-c3cccc([C@H]4O[C@H](CO)[C@@H](O)[C@H](O)[C@@H]4O)c3)ccc2c1` [Compound 145, N-Methyl 2-[3-[(2R,3S,4R,5S,6R)-3,4,5-trihydroxy-6-(hydroxymethyl)tetrahydropyran-2-yl]phenyl]quinoline-6-carboxylate] has a Kd of 22.4 ± 4.7 nM. Work on `N#Cc1ccc2[nH]c(-c3cccc([C@H]4O[C@H](CO)[C@@H](O)[C@H](O)[C@@H]4O)c3)nc2c1` [Compound 167] yielded a Kd of 32.1 ± 4.3 nM. With `CNC(=O)c1cccc(C#Cc2cc([C@H]3O[C@H](CO)[C@@H](O)[C@H](O)[C@@H]3O)ccc2OC)c1` [Compound 83, 3-[2-[2-Methoxy-5-[(2R,3S,4R,5S,6R)-3,4,5-trihydroxy-6-(hydroxymethyl)tetrahydropyran-2-yl]phenyl]ethynyl]-N-methyl-benzamide] the Kd was 32.2 ± 5.8 nM. Work on `N#Cc1ccc(Oc2cccc([C@H]3O[C@H](CO)[C@@H](O)[C@H](O)[C@@H]3O)c2)cc1` [Compound 185, 4-[3-[(2R,3S,4R,5S,6R)-3,4,5-trihydroxy-6-(hydroxymethyl)tetrahydropyran-2-yl]phenoxy]benzonitrile] yielded a Kd of 11.7 ± 7.5 nM. For `OC[C@H]1O[C@H](c2cccc(-c3ccc(-c4cccnc4)cc3)c2)[C@@H](O)[C@@H](O)[C@@H]1O` [Compound 174], the Kd was 13.6 ± 3.4 nM. Compound `OC[C@H]1O[C@H](c2cccc(OCCF)c2)[C@@H](O)[C@@H](O)[C@@H]1O` [Compound 206, (2R,3S,4R,5S,6R)-2-[3-(2-fluoroethoxy)phenyl]-6-(hydroxymethyl)tetrahydropyran-3,4,5-triol] has a Kd of 28.4 ± 6.2 nM. `C#Cc1ccc([C@H]2O[C@H](CO)[C@@H](O)[C@H](O)[C@@H]2O)cc1` [Compound 74, (2R,3S,4R,5S,6R)-2-(4-Ethynylphenyl)-6-(hydroxymethyl)tetrahydropyran-3,4,5-triol] gave a Kd of 26.4 ± 14.3 nM. In the case of `OC[C@H]1O[C@H](c2cccc(-c3nc4c(Cl)cc(Cl)cc4[nH]3)c2)[C@@H](O)[C@@H](O)[C@@H]1O` [Compound 162], the Kd is reported as 39.5 ± 11 nM. For `CNC(=O)c1cccc(Oc2cc(C)cc([C@H]3O[C@H](CO)[C@@H](O)[C@H](O)[C@@H]3O)c2)c1` [Compound 204, N-methyl-3-[3-methyl-5-[(2R,3S,4R,5S,6R)-3,4,5-trihydroxy-6-(hydroxymethyl)tetrahydropyran-2-yl]phenoxy]benzamide], the Kd was 10.6 ± 0.9 nM. `OC[C@H]1O[C@H](c2cccc(C#Cc3ccccc3)c2)[C@@H](O)[C@@H](O)[C@@H]1O` [Compound 91, (2R,3S,4R,5S,6R)-2-(Hydroxymethyl)-6-[3-(2-phenylethynyl)phenyl]tetrahydropyran-3,4,5-triol] gave a Kd of 23.6 ± 8.7 nM. Work on `CNC(=O)Cc1nnc(-c2ccc(-c3cccc([C@H]4O[C@H](CO)[C@@H](O)[C@H](O)[C@@H]4O)c3)cc2)o1` [Compound 181, N-methyl-2-(5-(3′-((2R,3S,4R,5S,6R)-3,4,5-trihydroxy-6-(hydroxymethyl)tetrahydro-2H-pyran-2-yl)-[1,1′-biphenyl]-4-yl)-1,3,4-oxadiazol-2-yl)acetamide] yielded a Kd of 21.7 ± 4.2 nM. `Cc1c(Br)cccc1[C@H]1O[C@H](CO)[C@@H](O)[C@H](O)[C@@H]1O` [Compound 76, (2R,3S,4R,5S,6R)-2-(3-Bromo-2-methyl-phenyl)-6-(hydroxymethyl)tetrahydropyran-3,4,5-triol] was tested, and the Kd was 38.9 ± 13 nM. Compound `OC[C@H]1O[C@H](c2cccc(-c3nc4c(F)cc(F)cc4[nH]3)c2)[C@@H](O)[C@@H](O)[C@@H]1O` [Compound 165] has a Kd of 28.9 ± 11.7 nM. Work on `CCc1c(-c2ccc(-c3nnc(C)o3)cc2)cccc1[C@H]1O[C@H](CO)[C@@H](O)[C@H](O)[C@@H]1O` [Compound 105, (2R,3S,4R,5S,6R)-2-[2-Ethyl-3-[4-(5-methyl-1,3,4-oxadiazol-2-yl)phenyl]phenyl]-6-(hydroxymethyl)tetrahydropyran-3,4,5-triol] yielded a Kd of 28.1 ± 3.9 nM. For `CNC(=O)c1ccc(OCc2cccc([C@H]3O[C@H](CO)[C@@H](O)[C@H](O)[C@@H]3O)c2)cc1` [Compound 264, N-methyl-4-[[3-[(2R,3S,4R,5S,6R)-3,4,5-trihydroxy-6-(hydroxymethyl)tetrahydropyran-2-yl]phenyl]methoxy]benzamide], the Kd was 30.8 ± 9.1 nM. In the case of `Cn1ccc(-c2ccc(-c3cccc([C@H]4O[C@H](CO)[C@@H](O)[C@H](O)[C@@H]4O)c3)cc2)n1` [Compound 122, (2R,3S,4R,5S,6R)-2-(hydroxymethyl)-6-[3-[4-(1-methylpyrazol-3-yl)phenyl]phenyl]tetrahydropyran-3,4,5-triol], the Kd is reported as 27.6 ± 7.4 nM. For `OC[C@H]1O[C@H](c2cccc(-c3ccc(-c4nnc(-c5ccccn5)o4)cc3)c2)[C@@H](O)[C@@H](O)[C@@H]1O` [Compound 120, (2R,3S,4R,5S,6R)-2-(hydroxymethyl)-6-[3-[4-[5-(2-pyridyl)-1,3,4-oxadiazol-2-yl]phenyl]phenyl]tetrahydropyran-3,4,5-triol], the Kd was 12.8 ± 2.1 nM. `O=C(O)c1cccc(COc2ccc(C3O[C@H](CO)[C@@H](O)[C@H](O)[C@@H]3O)cc2)c1` (stereo partly drawn) [Compound 247] was tested, and the Kd was 32 ± 5.1 nM. Compound `Cc1cnc(-c2ccc(-c3cccc([C@H]4O[C@H](CO)[C@@H](O)[C@H](O)[C@@H]4O)c3)cc2)o1` [Compound 117, (2R,3S,4R,5S,6R)-2-(hydroxymethyl)-6-[3-[4-(5-methyloxazol-2-yl)phenyl]phenyl]tetrahydropyran-3,4,5-triol] has a Kd of 20.9 ± 6.7 nM. `OC[C@H]1O[C@H](c2cccc(COc3cc(Cl)cc(Cl)c3)c2)[C@@H](O)[C@@H](O)[C@@H]1O` [Compound 263, (2R,3S,4R,5S,6R)-2-[3-[(3,5-dichlorophenoxy)methyl]phenyl]-6-(hydroxymethyl)tetrahydropyran-3,4,5-triol] was tested, and the Kd was 22.3 ± 5 nM. In the case of `Cc1nnc(-c2ccc(-c3ccc([C@H]4O[C@H](CO)[C@@H](O)[C@H](O)[C@@H]4O)cc3)cc2)o1` [Compound 129, (2R,3S,4R,5S,6R)-2-(hydroxymethyl)-6-[4-[4-(5-methyl-1,3,4-oxadiazol-2-yl)phenyl]phenyl]tetrahydropyran-3,4,5-triol], the Kd is reported as 22.9 ± 5.4 nM.
